In test [1] the test system is T47 D breast cancer cell line. The test is described as follows: Cell growth inhibition, SRB assay, extended panel. As to conditions: Homo sapiens, T47D; read-out: GI50 on T47D Breast cancer cell line. The format is cell-based. Here is the method: (§1) Breast cancer cells (MCF-7, MDA-MB-468, HCC1954), colon cancer cells (SW620) and lung cancer cells (A549), together with human mammary epithelial primary cells (HMEC), were seeded (1000 to 4000 per 80 μl per well depending on the cell growth rate) into 96 well plates, 24 hours before compound overlay. Compounds were prepared as 10 mM stock solutions in 100% DMSO which were diluted with DMEM (Dulbecco's Modified Eagle's Medium) cell growth Medium (Invitrogen, Burlington, ON, Canada) containing 10% FBS (Fetal Bovine Serum) to concentrations ranging from 50 nM to 250 μM. Aliquots (20 μl) from each concentration were overlaid to 80 μl of the pre-seeded cells in the 96 well plates to make final concentrations of 10 nM to 50 μM. The cells were cultured for 5 days before the Sulforhodamine B assay (SRB) was performed to determine the compound's cell growth inhibition activity.
(§2) Sulforhodamine B (purchased from Sigma, Oakville, ON, Canada) is a water-soluble dye that binds to the basic amino acids of the cellular proteins. Thus, colorimetric measurement of the bound dye provides an estimate of the total protein mass that is related to the cell number. the cells are fixed in situ by gently aspirating off the culture media and adding 50 μl ice cold 10% Tri-chloroacetic Acid (TCA) per well and incubate at 4° C. for 30-60 min, The plates are washed with water five times and allowed to air dry for 5 min. Addition of 50 μl 0.4% (w/v) SRB solution in 1% (v/v) acetic acid to each well and incubatation for 30 min at RT completes the staining reaction. Following staining, plates are washed four times with 1% acetic acid to remove unbound dye and then allowed to air dry for 5 min. The stain is solubilized with 100 μl of 10 mM Tris pH10.5 per well. Absorbance is read at 570 nm.
(§3) The percentage (%) of relative growth inhibition was calculated by comparing to DMSO treated only cells (100%). GI50's were determined for compounds with cytotoxic activity. The GI50 was calculated using GraphPad PRISM software (GraphPad Software, Inc., San Diego, Calif., USA).
In addition to the cell lines tested as described above, selected compounds have been assayed against an extended panel. […] The sulforhodamine B assay (SRB) described above was use to assay test compounds against the extended panel (Table 9).

The target in another test is T1, PLK1 (Homo sapiens, UniProt P53350).
T1 construct: purchased Invitrogen PV3501
The test is described as follows: PLK1 Inhibition Assay (Z-Lyte). The format is biochemical. As to conditions: for IC50: 25 μM ATP, 8 nM PLK1, read-out: PLK1 IC50 Ranges; for inhibition at 10 µM: 10 μM compound, read-out: PLK1 relative inhibition percentage at a dose of 10 μM. Here is the method:
PLK1 inhibition was determined using the Z-Lyte assay kit from Invitrogen (cat #PV3802). […] The % inhibition values were determined according to the manufacturer's directions and IC50 values were obtained using a non-linear 4 point logistic curve fit (XLfit4, IDBS)

A further test deals with T2, human PLK4 (Homo sapiens, UniProt O00444).
T2 construct: amino terminal GST fusion of residues 1-391 of human PLK4; made in house; host or cells: E. coli
T2 sequence (O00444 1-391): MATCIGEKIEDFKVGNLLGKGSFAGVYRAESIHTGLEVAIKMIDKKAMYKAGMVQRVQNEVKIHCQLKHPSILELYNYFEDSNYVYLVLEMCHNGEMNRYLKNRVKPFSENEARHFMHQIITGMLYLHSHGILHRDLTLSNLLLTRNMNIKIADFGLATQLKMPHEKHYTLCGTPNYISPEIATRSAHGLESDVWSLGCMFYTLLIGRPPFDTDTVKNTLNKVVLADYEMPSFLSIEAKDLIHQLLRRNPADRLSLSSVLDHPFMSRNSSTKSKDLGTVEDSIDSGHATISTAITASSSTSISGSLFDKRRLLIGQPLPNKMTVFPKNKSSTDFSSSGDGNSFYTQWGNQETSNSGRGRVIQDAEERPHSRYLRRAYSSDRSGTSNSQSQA
The test is described as follows: PLK4 Inhibition Assay (indirect ELISA). In kind it is biochemical. The note with it: 15 μM ATP, 4 nM GST-PLK4; read-out: PLK4 IC50 Ranges. The procedure, abridged:
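Dephosphorylated (lambda phosphatase) GST-PLK4 activity read by indirect ELISA. Compounds were pre-incubated with enzyme for 15 minutes before ATP was added. IC50 came from a non-linear 4-point logistic fit.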
For orientation: In an ELISA, binding on a coated surface is turned into a signal by an enzyme label.

Test [2] has as its system MDA-MB-468 basal breast cancer cell line. Description: Cell growth inhibition, Sulforhodamine B assay (SRB). The format is cell-based. The note with it: Homo sapiens. On the procedure: as §1, §2, §3
The test system of test [3] is MCF-7 luminal breast cancer cell line. The test is described as above. The format is cell-based. As to conditions: Homo sapiens. On the procedure: as §1, §2, §3
The target of the next test is T3, PLK2 (Homo sapiens, UniProt Q9NYY3).
T3 construct: purchased Invitrogen PV4204
Description: PLK2 Inhibition Assay (Z-Lyte). In kind it is biochemical. As to conditions: 10 μM compound; read-out: PLK2 relative inhibition percentage at a dose of 10 μM. Here is the method: PLK2 inhibition was determined using the Z-Lyte assay kit from Invitrogen (cat #PV3802). The assay was performed using the recommended manufacturer's instructions with 60 μM ATP and 133 nM PLK2 (Invitrogen cat #PV4204). The % inhibition values were determined according to the manufacturer's directions and IC50 values were obtained using a non-linear 4 point logistic curve fit (XLfit4, IDBS)

In another test the target is T4, Aurora A (Homo sapiens, UniProt O14965).
T4 construct: purchased Invitrogen PV3612
T4 sequence (O14965 1-403): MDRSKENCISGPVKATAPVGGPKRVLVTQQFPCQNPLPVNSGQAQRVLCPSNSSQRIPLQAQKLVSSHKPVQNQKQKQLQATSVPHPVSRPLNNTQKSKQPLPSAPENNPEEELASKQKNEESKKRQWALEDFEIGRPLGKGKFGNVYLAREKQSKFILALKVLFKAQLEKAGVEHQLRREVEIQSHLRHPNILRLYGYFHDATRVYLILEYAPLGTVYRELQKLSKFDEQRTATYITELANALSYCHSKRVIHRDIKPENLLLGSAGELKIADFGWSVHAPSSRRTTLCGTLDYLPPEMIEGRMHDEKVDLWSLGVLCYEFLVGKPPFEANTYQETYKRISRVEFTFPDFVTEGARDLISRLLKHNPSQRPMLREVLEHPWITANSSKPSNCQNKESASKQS
The test is described as follows: Aurora A Inhibition Assay (Z-Lyte). The format is biochemical. As to conditions: for IC50: 20 μM ATP, 12 nM Aurora A, read-out: Aurora A IC50 Ranges. Here is the method:
Aurora A inhibition was determined using the Z-Lyte assay kit from Invitrogen. The assay was performed using the recommended manufacturer's instructions with 20 μM ATP and 12 nM Aurora A (Invitrogen cat #PV3612). The % inhibition values were determined according to the manufacturer's directions and IC50 values were obtained using a non-linear 4 point logistic curve fit (XLfit4, IDBS)

The subject of test [4] is HCC1954 basal breast cancer cell line. The test is described as follows: Cell growth inhibition, Sulforhodamine B assay (SRB). The format is cell-based. The note with it: Homo sapiens, HCC1954, 120 h, 5 days culture, read-out: Cell Line GI50 Range, HCC-1954. On the procedure:
as §1, §2, §3
(The SRB assay estimates cell density from bound dye.)

Test [5] relates to human mammary epithelial primary cells (HMEC). The test is described as above. In kind it is cell-based. As to conditions: 120 h, 5 days culture, read-out: Cell Line GI50 Range, HMEC. Here is the method: as §1, §2, §3
The next test deals with SW620 colon cancer cells. Described as above. The format is cell-based. The note with it: Homo sapiens, SW-620, 120 h, 5 days culture, read-out: Cell Line GI50 Range, SW-620. On the procedure: as §1, §2, §3
For another test, the system named is A549 lung cancer cells. The description is as above. In kind it is cell-based. As to conditions: Homo sapiens, A549, 120 h, 5 days culture, read-out: Cell Line GI50 Range, A-549. Here is the method: as §1, §2, §3
A further test deals with T5, Aurora B (Homo sapiens, UniProt Q96GD4).
T5 construct: purchased Invitrogen PV3970
The test is described as follows: Aurora B Inhibition Assay (Z-Lyte). In kind it is biochemical. The note with it: 128 μM ATP, 28 nM Aurora B; read-out: Aurora B IC50 Ranges. On the procedure:
Aurora B inhibition was determined using the Z-Lyte assay kit from Invitrogen. The assay was performed using the recommended manufacturer's instructions with 128 μM ATP and 28 nM Aurora B (Invitrogen cat #PV3970). The % inhibition values were determined according to the manufacturer's directions and IC50 values were obtained using a non-linear 4 point logistic curve fit (XLfit4, IDBS)

Where [6] appears, read: MDA-MB-468, read-out: GI50 on MDA-MB-468 Breast cancer cell line.
Where [7] appears, read: MCF7, read-out: GI50 on MCF-7 Breast cancer cell line.
Where [8] appears, read: MDA-MB-468, 120 h, 5 days culture, SRB, read-out: Cell Line GI50 Range, MDA-MB-468.
Where [9] appears, read: MCF7, 120 h, 5 days culture, SRB, read-out: Cell Line GI50 Range, MCF-7.

Read-outs that look alike come from different tables or passages of the source.

T3 sequence (Q9NYY3 whole entry): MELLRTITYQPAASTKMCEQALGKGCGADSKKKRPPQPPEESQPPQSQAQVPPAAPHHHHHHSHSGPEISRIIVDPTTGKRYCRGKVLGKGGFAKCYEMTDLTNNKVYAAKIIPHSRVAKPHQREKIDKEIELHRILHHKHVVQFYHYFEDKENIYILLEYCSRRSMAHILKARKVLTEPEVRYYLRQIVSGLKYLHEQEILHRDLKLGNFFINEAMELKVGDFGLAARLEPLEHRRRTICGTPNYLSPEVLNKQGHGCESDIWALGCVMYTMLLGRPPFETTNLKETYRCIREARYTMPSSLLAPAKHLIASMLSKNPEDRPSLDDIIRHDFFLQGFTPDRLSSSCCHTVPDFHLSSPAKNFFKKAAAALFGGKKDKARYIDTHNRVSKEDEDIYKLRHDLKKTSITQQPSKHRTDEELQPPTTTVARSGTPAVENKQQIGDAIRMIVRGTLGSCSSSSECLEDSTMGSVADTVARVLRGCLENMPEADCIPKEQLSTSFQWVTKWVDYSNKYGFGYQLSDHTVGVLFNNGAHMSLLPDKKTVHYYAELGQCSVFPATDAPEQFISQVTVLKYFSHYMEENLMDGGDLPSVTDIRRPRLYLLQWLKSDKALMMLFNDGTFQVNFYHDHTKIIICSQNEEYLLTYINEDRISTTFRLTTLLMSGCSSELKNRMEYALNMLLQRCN
T1 sequence (P53350 whole entry): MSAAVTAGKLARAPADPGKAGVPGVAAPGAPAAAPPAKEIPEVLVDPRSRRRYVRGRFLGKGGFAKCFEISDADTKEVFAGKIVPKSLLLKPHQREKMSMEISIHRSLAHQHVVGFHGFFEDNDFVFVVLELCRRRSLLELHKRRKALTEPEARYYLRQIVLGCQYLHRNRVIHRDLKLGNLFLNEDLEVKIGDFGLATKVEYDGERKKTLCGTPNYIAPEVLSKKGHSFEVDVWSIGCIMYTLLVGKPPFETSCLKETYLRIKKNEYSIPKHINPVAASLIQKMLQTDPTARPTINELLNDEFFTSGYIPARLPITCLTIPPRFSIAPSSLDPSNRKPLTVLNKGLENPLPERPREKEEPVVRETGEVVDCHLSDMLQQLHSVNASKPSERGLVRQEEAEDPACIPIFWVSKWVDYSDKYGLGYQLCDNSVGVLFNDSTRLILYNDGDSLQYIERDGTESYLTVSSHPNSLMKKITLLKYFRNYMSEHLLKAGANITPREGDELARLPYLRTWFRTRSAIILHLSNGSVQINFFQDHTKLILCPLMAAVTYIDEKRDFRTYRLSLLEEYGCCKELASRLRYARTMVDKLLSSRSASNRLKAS
T5 sequence (Q96GD4 whole entry): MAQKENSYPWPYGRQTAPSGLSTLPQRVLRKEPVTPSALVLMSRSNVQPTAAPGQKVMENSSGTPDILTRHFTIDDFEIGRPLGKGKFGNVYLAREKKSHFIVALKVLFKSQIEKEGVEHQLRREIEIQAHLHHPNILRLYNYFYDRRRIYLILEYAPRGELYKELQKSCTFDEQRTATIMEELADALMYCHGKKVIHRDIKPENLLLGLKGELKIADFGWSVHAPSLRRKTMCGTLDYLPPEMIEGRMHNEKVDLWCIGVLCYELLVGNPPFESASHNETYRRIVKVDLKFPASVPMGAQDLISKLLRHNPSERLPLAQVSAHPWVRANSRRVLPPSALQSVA

As for `CNS(=O)(=O)c1ccc2c(c1)C(=Cc1ccc3[nH]nnc3c1)C(=O)N2` [Example A7, 3-((1H-benzo[d][1,2,3]triazol-5-yl)methylene)-N-methyl-2-oxoindoline-5-sulfonamide], the GI50 in test [1], in [2] (setting [6]) and in test [3] (setting [7]) was above 50 µM in each case. Further, the IC50 – broadly, the concentration that inhibits the measured activity by half – was 5 to 50 µM on PLK1 and below 5 µM on human PLK4.
For `CNS(=O)(=O)c1ccc2c(c1)C(=Cc1ccc3cn[nH]c3c1)C(=O)N2` (mixture of isomers) [Example A9, (E and Z)-3-((1H-indazol-6-yl)methylene)-N-methyl-2-oxoindoline-5-sulfonamide], the GI50 in [1], in test [2] (setting [6]) and in [3] (setting [7]) was above 50 µM throughout. Also, the IC50 on PLK1 and at human PLK4 was below 5 µM each time.
As to `O=C(O)/C=C/c1n[nH]c2cc(/C=C3/C(=O)Nc4ccccc43)ccc12` [Example A70, (E)-3-(6-((E)-(2-oxoindolin-3-ylidene)methyl)-1H-indazol-3-yl)acrylic acid], the 50% growth inhibitory concentration (GI50) in [1], in test [2] (setting [6]) and in test [3] (setting [7]) was above 50 µM each time. Besides, the IC50 at human PLK4 is below 5 µM.
With `CCOC(=O)/C=C/c1n[nH]c2cc(/C=C3/C(=O)Nc4ccc(OC)cc43)ccc12` [Example A111, (E)-ethyl 3-(6-((E)-(5-methoxy-2-oxoindolin-3-ylidene)methyl)-1H-indazol-3-yl)acrylate], the inhibition at 10 µM on PLK2 and on PLK1 was below 50% each time. Further, the GI50 in test [1], in test [2] (setting [6]) and in test [3] (setting [7]) was above 50 µM throughout. Further, the IC50 at Aurora A and on human PLK4 was below 5 µM in each case.
As for `Cc1ncsc1/C=C/c1n[nH]c2cc(/C=C3/C(=O)Nc4ccccc43)ccc12` [Example A103, (E)-3-((3-((E)-2-(4-methylthiazol-5-yl)vinyl)-1H-indazol-6-yl)methyl-ene)indolin-2-one], the inhibition (usually the drop in the measured response relative to a control, in per cent) at 10 µM was below 50% at PLK2; below 50% on PLK1; above 50% at Aurora A (10 μM compound, read-out: Aurora A relative inhibition percentage at a dose of 10 μM). In addition, the GI50 (in general, the concentration giving 50% growth inhibition) in test [4] is 5 to 20 µM; in test [5], above 50 µM; in test [2] (setting [8]), below 5 µM; in the test with SW620 colon cancer cells it was below 5 µM; in test [3] (setting [9]), below 5 µM; in the test with A549 lung cancer cells it was 5 to 20 µM.
With `O=C1Nc2ccc(Cl)cc2/C1=C\c1ccc2c(/C=C/c3ccncc3)n[nH]c2c1` [Example A84, (E)-5-chloro-3-((3-((E)-2-(pyridin-4-yl)vinyl)-1H-indazol-6-yl)methylene)indolin-2-one], the IC50 at Aurora B, at Aurora A and on human PLK4 was below 5 µM throughout. Also, the inhibition at 10 µM on PLK2 and on PLK1 was below 50% each time. Further, the GI50 is 5 to 20 µM in test [4]; above 50 µM in test [5]; below 5 µM in test [2] (setting [8]); below 5 µM with SW620 colon cancer cells; below 5 µM in [3] (setting [9]); above 50 µM in the test with A549 lung cancer cells.
With `O=C1Nc2ccccc2/C1=C\c1ccc2c(-c3cccs3)n[nH]c2c1` [Example A91, (E)-3-((3-(thiophen-2-yl)-1H-indazol-6-yl)methylene)indolin-2-one], the IC50 at Aurora B is below 5 µM; on Aurora A it was 5 to 50 µM; on human PLK4, below 5 µM. Further, the inhibition at 10 µM on PLK2 and at PLK1 was below 50% each time. Moreover, the concentration for 50% growth inhibition (GI50) in test [4] is below 5 µM; in [5], 5 to 20 µM; in test [2] (setting [8]) it was below 5 µM; in the test on SW620 colon cancer cells, below 5 µM; in test [3] (setting [9]) it was below 5 µM.

Source of the values: patent publication US8765748B2, “Indazolyl, benzimidazolyl, benzotriazolyl substituted indolinone derivatives as kinase inhibitors useful in the treatment of cancer” (University Health Network, priority 2007, dated 2014).
